Values of other authors as cited in patent publication US20130209380A1, “MOISTURIZING COMPOSITION WITH SPF 30” (GALDERMA S.A., priority 2010, published 2013).

Tested on: stratum corneum
Conditions: In vitro human skin model

affinity and diffusion into the stratum corneum: good
SMILES: CCCCCCCCCCCCCCC[C@@H](O)[C@H](CO)NC(=O)C(O)CCCCCCCCCCCCCC (some centres unmarked) [pseudo ceramide 5, N-(2-hydroxyhexadecanoyl)sphinganine]
effect on synthesis of ceramides 1-2-3: induction synthesis of ceramides 1-2-3
